Assay results published in patent publication US10968203B2, “Pyrimidinyl-pyridyloxy-naphthyl compounds and methods of treating IRE1-related diseases and disorders” (Genentech, Inc., priority 2017, dated 2021).
pIC50: −log10 of the molar value. Structures can show the parent of a compound that is named as a salt.

system: XBP1s-luc 293 LUC; assay: cellular PD assay, XBP1s-LUC reporter (Example 903); assay type: cell-based; details: Table 1; read-out: XBP1s-luc 293 LUC (IC50)
Outline: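 A luciferase fusion, in frame and expressed only when the XBP1 transcript is spliced, served as the readout of cellular IRE1α activity in an XBP1-Luc reporter line.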

Compound	pIC50
Cc1ccc2c(NCC3CC3)cccc2c1Oc1ncccc1-c1ccnc(N[C@H]2CCCNC2)n1 [Example 223, (S)-4-(2-((5-((Cyclopropylmethyl)amino)-2-methylnaphthalen-1-yl)oxy)pyridin-3-yl)-N-(piperidin-3-yl)pyrimidin-2-amine]	6.67
Cc1ccc2c(NS(=O)(=O)Cc3cccnc3)cccc2c1Oc1ncccc1-c1ccnc(N[C@H]2CCCNC2)n1 [Example 125, (S)—N-(6-Methyl-5-((3-(2-(piperidin-3-ylamino)pyrimidin-4-yl)pyridin-2-yl)oxy)naphthalen-1-yl)-1-(pyridin-3-yl)methanesulfonamide hydrochloride]	6.50
COCCCS(=O)(=O)Nc1cccc2c(Oc3ncccc3-c3ccnc(N[C@H]4CCCNC4)n3)c(C)ccc12 [Example 132, (S)-3-Methoxy-N-(6-methyl-5-((3-(2-(piperidin-3-ylamino)pyrimidin-4-yl)pyridin-2-yl)oxy)naphthalen-1-yl)propane-1-sulfonamide hydrochloride]	6.44
CC[C@H](O)CNc1cccc2c(Oc3ncccc3-c3ccnc(N[C@H]4CCCNC4)n3)c(C)ccc12 [Example 313, (S)-1-((6-Methyl-5-((3-(2-((S)-piperidin-3-ylamino)pyrimidin-4-yl)pyridin-2-yl)oxy)naphthalen-1-yl)amino)butan-2-ol]	6.83
Cc1ccc2c(-c3ccccn3)cccc2c1Oc1ncccc1-c1ccnc(N[C@H]2CCCNC2)n1 [Example 353, (S)-4-(2-((2-Methyl-5-(pyridin-2-yl)naphthalen-1-yl)oxy)pyridin-3-yl)-N-(piperidin-3-yl)pyrimidin-2-amine]	6.88
Cc1ccc2c(NS(=O)(=O)C3CCCCC3)c(F)ccc2c1Oc1ncccc1-c1ccnc(N[C@H]2CCCNC2)n1 [Example 282, (S)—N-(2-Fluoro-6-methyl-5-((3-(2-(piperidin-3-ylamino)pyrimidin-4-yl)pyridin-2-yl)oxy)naphthalen-1-yl)cyclohexanesulfonamide]	7.61
CCCS(=O)(=O)Nc1cc(C)c(Oc2ncccc2-c2ccnc(N[C@H]3CCCNC3)n2)c2ccccc12 [Example 164, (S)—N-(3-Methyl-4-((3-(2-(piperidin-3-ylamino)pyrimidin-4-yl)pyridin-2-yl)oxy)naphthalen-1-yl)propane-1-sulfonamide]	6.83
Cc1ccc2c(NC(=O)C3CC3)c(F)ccc2c1Oc1ncccc1-c1ccnc(N[C@H]2CCCNC2)n1 [Example 271, (S)—N-(2-Fluoro-6-methyl-5-((3-(2-(piperidin-3-ylamino)pyrimidin-4-yl)pyridin-2-yl)oxy)naphthalen-1-yl)cyclopropanecarboxamide]	6.57
Cc1ccc2c(NC(=O)[C@H]3CC3C3CC3)cccc2c1Oc1ncccc1-c1ccnc(N[C@H]2CCCNC2)n1 (single isomer, unassigned) [Example 273]	6.52
CCCS(=O)(=O)Nc1cccc2c(Oc3ncc(Br)cc3-c3ccnc(N[C@H]4CCCNC4)n3)c(C)ccc12 [Example 336, (S)-N-(5-((5-Bromo-3-(2-(piperidin-3-ylamino)pyrimidin-4-yl)pyridin-2-yl)oxy)-6-methylnaphthalen-1-yl)propane-1-sulfonamide]	6.27
CCCS(=O)(=O)Nc1cccc2c(Oc3ncccc3-c3ccnc(N[C@H]4CC[C@H](N)CC4)n3)c(C)ccc12 [Example 158, N-(5-((3-(2-(((trans)-4-Aminocyclohexyl)amino)pyrimidin-4-yl)pyridin-2-yl)oxy)-6-methylnaphthalen-1-yl)propane-1-sulfonamide]	6.33
Cc1nc(Nc2cccc3c(Oc4ncccc4-c4ccnc(N[C@H]5CCCNC5)n4)c(C)ccc23)cs1 [Example 192, (S)-2-Methyl-N-(6-methyl-5-((3-(2-(piperidin-3-ylamino)pyrimidin-4-yl)pyridin-2-yl)oxy)naphthalen-1-yl)thiazol-4-amine]	6.35
Cc1ccc2c(NS(=O)(=O)Cc3ccccn3)cccc2c1Oc1ncccc1-c1ccnc(N[C@H]2CCCNC2)n1 [Example 126, (S)—N-(6-Methyl-5-((3-(2-(piperidin-3-ylamino)pyrimidin-4-yl)pyridin-2-yl)oxy)naphthalen-1-yl)-1-(pyridin-2-yl)methanesulfonamide hydrochloride]	7.27
CCOC(=O)Nc1cccc2c(Oc3ncccc3-c3ccnc(N[C@H]4CCCNC4)n3)c(C)ccc12 [Example 153, (S)-Ethyl (6-methyl-5-((3-(2-(piperidin-3-ylamino)pyrimidin-4-yl)pyridin-2-yl)oxy)naphthalen-1-yl)carbamate]	6.84
Cc1ccc2c(NC(=O)C(Cl)Cl)cccc2c1Oc1ncccc1-c1ccnc(N[C@H]2CCCNC2)n1 [Example 338, (S)-2,2-Dichloro-N-(6-methyl-5-(3-(2-(piperidin-3-ylamino)pyrimidin-4-yl)pyridin-2-yloxy)naphthalen-1-yl)acetamide]	6.79
Cc1cc(CNc2cccc3c(Oc4ncccc4-c4ccnc(N[C@H]5CCCNC5)n4)c(C)ccc23)no1 [Example 280, (S)-4-(2-((2-Methyl-5-(((5-methylisoxazol-3-yl)methyl)amino)naphthalen-1-yl)oxy)pyridin-3-yl)-N-(piperidin-3-yl)pyrimidin-2-amine]	6.87
Cc1ccc2c(NC[C@@H](O)C(F)(F)F)cccc2c1Oc1ncccc1-c1ccnc(N[C@H]2CCCNC2)n1 [Example 298, (R)-1,1,1-Trifluoro-3-((6-methyl-5-((3-(2-((S)-piperidin-3-ylamino)pyrimidin-4-yl)pyridin-2-yl)oxy)naphthalen-1-yl)amino)propan-2-ol]	7.17
Cc1ccc2c(NS(=O)(=O)Cc3ccccc3)c(F)ccc2c1Oc1ncccc1-c1ccnc(N[C@H]2CCCNC2)n1 [Example 283, (S)—N-(2-Fluoro-6-methyl-5-((3-(2-(piperidin-3-ylamino)pyrimidin-4-yl)pyridin-2-yl)oxy)naphthalen-1-yl)-1-phenylmethanesulfonamide]	8.53
Cc1ccc2c(NC(=O)CC3(C)CCCC3)cccc2c1Oc1ncccc1-c1ccnc(N[C@H]2CCCNC2)n1 [Example 267, (S)—N-(6-Methyl-5-((3-(2-(piperidin-3-ylamino)pyrimidin-4-yl)pyridin-2-yl)oxy)naphthalen-1-yl)-2-(1-methylcyclopentyl)acetamide]	6.79
Cc1ccc2c(NCc3cscn3)cccc2c1Oc1ncccc1-c1ccnc(N[C@H]2CCCNC2)n1 [Example 211, (S)-4-(2-((2-Methyl-5-((thiazol-4-ylmethyl)amino)naphthalen-1-yl)oxy)pyridin-3-yl)-N-(piperidin-3-yl)pyrimidin-2-amine]	7.15
Cc1ccc2c(NC(=O)[C@H]3CC34CC4)cccc2c1Oc1ncccc1-c1ccnc(N[C@H]2CCCNC2)n1 (single isomer, unassigned) [Example 217]	7.26
Cc1nc(CNc2cccc3c(Oc4ncccc4-c4ccnc(N[C@H]5CCCNC5)n4)c(C)ccc23)no1 [Example 320, 4-[2-[[2-Methyl-5-[(5-methyl-1,2,4-oxadiazol-3-yl)methylamino]-1-naphthyl]oxy]-3-pyridyl]-N-[(3S)-3-piperidyl]pyrimidin-2-amine]	6.13
Cc1ccc2c(NC3CCCC[C@H]3O)cccc2c1Oc1ncccc1-c1ccnc(N[C@H]2CCCNC2)n1 (stereo partly drawn) [Example 384, trans-2-((6-Methyl-5-((3-(2-((S)-piperidin-3-ylamino)pyrimidin-4-yl)pyridin-2-yl)oxy)naphthalen-1-yl)amino)cyclohexanol]	6.84
Cc1ccc2c(NCCC3CC3)cccc2c1Oc1ncccc1-c1ccnc(N[C@H]2CCCNC2)n1 [Example 224, (S)-4-(2-((5-((2-Cyclopropylethyl)amino)-2-methylnaphthalen-1-yl)oxy)pyridin-3-yl)-N-(piperidin-3-yl)pyrimidin-2-amine]	6.75
Cc1ccc2c(NS(=O)(=O)Cc3ccccc3)c(F)ccc2c1Oc1ncccc1-c1ccnc(N[C@@H]2CNC[C@H](C)C2)n1 [Example 378, N-(2-Fluoro-6-methyl-5-((3-(2-(((3S,5R)-5-methylpiperidin-3-yl)amino)pyrimidin-4-yl)pyridin-2-yl)oxy)naphthalen-1-yl)-1-phenylmethanesulfonamide]	8.85
Cc1ccc2c(NS(=O)(=O)N(C)C)c(F)ccc2c1Oc1ncccc1-c1ccnc(N[C@@H]2CNC[C@H](C)C2)n1 [Example 325, 4-[2-[[5-(Dimethylsulfamoylamino)-6-fluoro-2-methyl-1-naphthyl]oxy]-3-pyridyl]-2-[[(3S,5R)-5-methyl-3-piperidyl]amino]pyrimidine]	7.46
Cc1cc(NS(=O)(=O)C2CCC2)c2ccccc2c1Oc1ncccc1-c1ccnc(N[C@H]2CC[C@H](N)CC2)n1 [Example 111, N-(4-((3-(2-(((trans)-4-Aminocyclohexyl)amino)pyrimidin-4-yl)pyridin-2-yl)oxy)-3-methylnaphthalen-1-yl)cyclobutanesulfonamide hydrochloride]	6.35
CC[C@@H]1CCN(c2cccc3c(Oc4ncccc4-c4ccnc(N[C@@H]5CNC[C@H](C)C5)n4)c(C)ccc23)C1=O (single isomer, unassigned) [Example 331]	7.24

same assay, conditions: Table 2; read-out: XBP1s-luc 293 LUC (IC50)

Compound	pIC50
Cc1c(F)c(NS(=O)(=O)CCC(F)(F)F)c2ccccc2c1Oc1ncccc1-c1ccnc(N[C@H]2CC[C@H](N)CC2)n1 [Example 483, N-(4-((3-(2-(((1r,4r)-4-Aminocyclohexyl)amino)pyrimidin-4-yl)pyridin-2-yl)oxy)-2-fluoro-3-methylnaphthalen-1-yl)-3,3,3-trifluoropropane-1-sulfonamide]	6.84
Cc1ccc2c(NC(=O)/C=C/C(F)(F)F)cccc2c1Oc1ncccc1-c1ccnc(N[C@H]2CCCNC2)n1 [Example 407, (S)-4,4,4-Trifluoro-N-(6-methyl-5-((3-(2-(piperidin-3-ylamino)pyrimidin-4-yl)pyridin-2-yl)oxy)naphthalen-1-yl)but-2-enamide]	6.66
Cc1ccc2c(NS(=O)(=O)CCC3CC3)c(F)ccc2c1Oc1ncccc1-c1ccnc(N[C@H]2CCCNC2)n1 [Example 399, (S)-2-Cyclopropyl-N-(2-fluoro-6-methyl-5-((3-(2-(piperidin-3-ylamino)pyrimidin-4-yl)pyridin-2-yl)oxy)naphthalen-1-yl)ethanesulfonamide hydrochloride]	7.14
